Data on three compounds can be found in patent US4870210A, “Aminoguanidine derivative as anti-inflammatory agents” (American Home Products Corporation, priority 1987, dated 1989).

Test [1] can be described thus: rat carrageenan paw edema assay. The class given is in vivo, rat (male Sprague-Dawley). The note with it: po, 3 h, read-out: Oral ED50 (95% C.L.). On the procedure:
The compounds of the invention are further tested in the rat carrageenan paw edema assay to determine their ability to inhibit the acute inflammatory response. This assay is carried out as follows: 140-180 gm male Sprague-Dawley rats, in groups of 6 animals are injected subcutaneously in the right paw with 0.1 ml of 1% carrageenan at zero time. Mercury plethysmographic readings (ml) of the paw are made at zero time and 3 hours later. Test compounds are suspended or dissolved in 0.5% methylcellulose and given perorally 1 hour prior to carrageenan administration. The increase in paw volume (edema in ml.) produced by the carrageenan is measured. […] Unpaired Student's t-test is used to determine statistical significance.
On the technique in general: The carrageenan paw model is a standard test of acute inflammation.

Test [2] has as its system synthesis of LTB4 by rat glycogenelicited polymorphonuclear leukocytes (PMN). The test can be described thus: inhibition of the synthesis of LTB4 (lipoxygenase oxidation product) by rat glycogen-elicited polymorphonuclear leukocytes (PMN). The note with it: Leukocyte, A23187 stimulated. The class given is cell-based, rat (female Wistar). The protocol: This is especially true with respect to 5,12-diHETE, which also denoted as LTB4 [see Ford-Hitchinson, J. Roy. Soc. Med., 74, 831 (1981)]. The assay of this Example measures the ability of the compounds of the invention to inhibit the synthesis of LTB4 by rat glycogenelicited polymorphonuclear leukocytes (PMN).
(§1) The assay is carried out as follows:
(§2) Rat polymorphonuclear leukocytes (PMNs) are obtained from female Wistar rats (150-200 g) which receive an injection of 6% glycogen (10 ml i.p.). Rats are sacrificed 18-24 hours post injection by CO2 asphyxiation and the elicited cells are harvested by peritoneal lavage using physiological saline (0.9% NaCl). The exudate is centrifuged at 400×g for 10 minutes. The supernatant fluid is discarded and the cell pellet is resuspended in a concentration of 2.0×10^7 cells/ml in HBSS containing Ca^++ and Mg^++ and 10 μM L-cyteine.
To 1 ml aliquots of cell suspension, test drugs or vehicle are added, then preincubated at 37° C. for 10 minutes. […] Supernatants are then analyzed by HPLC analysis on a 15 cm×4.6 mm ID Supelcosil LC-18 (Supelco)(3M) column, using a two solvent system at a flow rate of 1.4 ml total flow as follows: […]
Injections: 150 μl of each supernatant is injected directly onto column and ^3 H arachidonic acid metabolites are monitored using an on-line radioactivity detector (Ramona, IN/US, Fairfield, NJ). […]

Test [3] relates to synthesis of the arachidonic acid cyclooxygenase oxidation product TxB2. The test can be described thus: inhibition of the synthesis of the cyclooxygenase oxidation product TxB2 by rat polymorphonuclear leukocytes. In kind it is cell-based, rat (female Wistar). As to conditions: Leukocyte; rat PMN, A23187 stimulated. The protocol: as §2
To 1 ml aliquots of cell suspension, test drugs or vehicle are added, then preincubated at 37° C. for 10 minutes. A23187 (1 μM) and [^3 H]-AA (3.0 μCi/ml) are then added and the samples are further incubated for 10 minutes. The reaction is terminated by centrifugation and pelleting cells. Supernatants are then analyzed by HPLC analysis on a 15 cm×4.6 mm ID Supelcosil LC-18 (Supelco)(3M) column, using a two solvent system at a flow rate of 1.4 ml total flow as follows:
Co-chromatography with standard [^3 H] leukotriene B4 (LTB4) in medium of stimulated PMN exposed to drug is compared to that found in medium of stimulated cells exposed to no drug, generating percent inhibition.
In this assay, the procedure of Example 3 is carried out as described. […]
The results are calculated as in Example 3 and presented below: […]

Test [4] relates to synthesis of PGE2 by murine peritoneal macrophages. The test can be described thus: inhibition of the synthesis of PGE2 by murine peritoneal macrophages. The class given is cell-based, mouse (CD-1). As to conditions: Mus musculus, Peritoneal macrophage, zymosan or TPA stimulus, RIA. The protocol: (§3) The ability of the compounds of the invention to inhibit both leukotriene and prostaglandin synthesis is examined in an assay which measures the ability of the compounds of the invention to inhibit the synthesis of PGE2 and LTC4 by murine peritoneal macrophages.
as §1
(§4) Macrophages are removed from the peritoneal cavity of 55-57 day old CD-1 mice (killed by CO2 asphyxiation) by peritoneal lavage and centrifuged at 400×g for ten minutes. The cells are resuspended in Medium 199 and 4×10^6 cells are allowed to adhere on 35×10 mm Petri dishes for 1.5 hours at 37° C. in an atmosphere of 95% air and 5% CO2. The cell monolayers are washed and incubated overnight in Medium 199 supplemented with 10% heat inactivated bovine serum containing 1 μCi[^14 C]-arachidonic acid, or in the absence of ^14 C-arachidonic acid when the supernatant is to be assayed by radioimmunoassay (RIA). The labeled cells are then washed and incubated at 37° C. for 2 hours in Medium 199 with the prostaglandin stimuli, zymosan, or 12-o-tetradecanoyl-phorbol-13-acetate (TPA) and in the presence or absence of test compounds. Following incubation, the supernatant is removed and subjected to radioimmunoassay in order to determine the percent inhibition of prostaglandin E2 and leukotriene C4 by the test compounds.

The test system of test [5] is synthesis of LTC4 by murine peritoneal macrophages. Briefly: inhibition of the synthesis of LTC4 by murine peritoneal macrophages. The class given is cell-based, mouse (CD-1). As to conditions: Mus musculus, Peritoneal macrophage, zymosan or TPA stimulus, RIA. On the procedure:
as §3, §1, §4

The term ED50 denotes the dose at which the effect has come halfway, by size or by number of responders. In general, IC50 refers to the concentration that gives 50% inhibition.

In the case of `CC(=O)Oc1ccccc1C(=O)O` [Aspirin], the ED50 in test [1] worked out at 145 mg/kg.

Regarding `CC(=NNC(=N)N)c1cccc(OCc2ccc3ccccc3c2)c1` [Example 1, 2-[1-[3-(2-Naphthalenylmethoxy)phenyl]ethylidene]-hydrazinecarboximidamide], the 50% inhibitory concentration (IC50) in test [2] came to 8.9 µM; in test [3] it was 11.2 µM; in test [4] it was 43 µM; in test [5], 33 µM.

Consider `COc1ccc2c(c1)c(CC(=O)O)c(C)n2C(=O)c1ccc(Cl)cc1` [Indomethacin], for which, in test [1], the ED50 came out at 3.7 mg/kg.
